Numbered stars: 1 amine (or outer) side, 2 acyl side, 3 side chain; on linkers, the order of the positions; unused ones are H or OH. Bridge positions count the residues as written; N and C are the ends. Square brackets hold non-standard residues; d marks the D form. Peptide text beside a SMILES is read from it. * marks the point of attachment. ξ: configuration not given here. pTerphenylCO(4''-OnC5H11) = CCCCCOc1ccc(-c2ccc(-c3ccc(C(=O)*)cc3)cc2)cc1; Orn(4R-OH,5R-OH) = O=C([C@H](C[C@@H](O)[C@@H](O)N[*:3])N[*:1])[*:2]; hTyr(3S-OH,4S-OH) = N[C@H](C(=O)O)[C@H](O)[C@@H](O)c1ccc(O)cc1; X10 = CCCCCCCCCOc1ccc2cc(CC[C@H](CC(=O)[*:1])N[*:2])ccc2c1; Pro(3S-OH,4S-Me) = C[C@H]1CN[C@H](C(=O)O)[C@H]1O; X12 = NCC(=O)Nc1cc(CC(N[*:1])C(=O)[*:2])ccc1O; X9 = CCCCCCCCCCCCC[C@H](CC(=O)[*:1])O[*:2]; X2 = NC(=O)CC(O)C(N[*:1])C(=O)[*:2]; Hyp = O=C(O)[C@@H]1C[C@@H](O)CN1; X1 = O=C(C1C(O)CCN1[*:1])[*:2]; ξY = NC(Cc1ccc(O)cc1)C(=O)O; ξHyp = O=C(O)C1CC(O)CN1; ξOrn = NCCCC(N)C(=O)O; ξT = CC(O)C(N)C(=O)O; ξV = CC(C)C(N)C(=O)O; ξP = O=C(O)C1CCCN1; ξA = CC(N)C(=O)O; Sar = CNCC(=O)O
Key:
[1] = tested on: mouse hepatocytes; assay: In vitro hepatotoxicity test; assay type: cell-based; details: mouse hepatocyte monolayers exposed 1 day, morphological evaluation
Source text: The mouse hepatocytes were isolated by a collagenase digestion and cultured in microtest plates. The hepatocyte monolayers were exposed to the test Aerothricins in the culture system for 1 day. After the culture period, the hepatocytes were observed under a microscope and evaluated morphologically. The degree of the morphological alteration (degeneration) of the hepatocytes by the test Aerothricins were compared with WF 11243 and LY303366.

[2] = tested on: Candida albicans; assay: In vivo antifungal efficacy, systemic candidiasis in mice; parameters: species or system Crj: CD-1 (ICR) mice; details: i.v., b.i.d×1 day followed by q.d.×2 days; from survival on day 14
Experimental: Mice of a conventional immunocompetent mouse strain, Crj: CD-1 (ICR) were used for experimental infection models of systemic candidiasis. 4 weeks old Crj: CD-1 (ICR) mice were used for systemic candidiasis by injecting Candida albicans 5×10^6 conidia/mouse via the tail vein. Treatments were given twice (0, 4 h after infection) on the first day and once daily on following 2 days for systemic candidiasis (b.i.d×1 day followed by q.d.×2 days), intravenously (i.v.). 50% of effective dose (ED50) values was calculated from the survival number at each dose on day 14.

Row | Structure (SMILES) | Cytotoxicity to hepatocyte [1] [µg/mL] | In vivo antifungal activity against systemic candidiasis in mice, ED50 on day 14 [2] [mg/kg]
1 | CCCCCCCCCCOc1ccc(CC[C@@H]2CC(=O)NC(C(C)O)C(=O)NC(C)C(=O)NC(Cc3ccc(O)cc3)C(=O)NC(C(C)C)C(=O)N3CC(O)CC3C(=O)NC(C(C)O)C(=O)NC(C(C)O)C(=O)N3CCC(O)C3C(=O)NC(C(O)CC(N)=O)C(=O)NCC(=O)NC(C(C)O)C(=O)NC(CCCN)C(=O)N2)cc1 (single isomer, unassigned) [Aerothricin 47] | >100 | 
2 | CCCCCCCCCCCCC[C@@H]1CC(=O)NC(C(C)O)C(=O)NC(C)C(=O)NC(Cc2ccc(OC)cc2)C(=O)NC(C(C)C)C(=O)N2CC(O)CC2C(=O)NC(C(C)O)C(=O)NC(C(C)O)C(=O)N2CCC(O)C2C(=O)NC(C(O)CC(N)=O)C(=O)NCC(=O)NC(C(C)O)C(=O)NC(CCCN)C(=O)O1 (some centres unmarked) [Aerothricin 5] ([ξT][ξA][ξY](Me)[ξV][ξHyp][ξT][ξT][X1][X2]G[ξT][ξOrn]; linker N-C via X9) |  | 0.3
3 | CCCCCCCCCCCCC[C@@H]1CC(=O)NC(C(C)O)C(=O)NC(C)C(=O)NC(Cc2ccc(O)cc2)C(=O)NC(C(C)C)C(=O)N2CC(O)CC2C(=O)NC(C(C)O)C(=O)NC(C(C)O)C(=O)N2CCC(O)C2C(=O)NC(C(O)CC(N)=O)C(=O)NCC(=O)NC(C(C)O)C(=O)NC(CCCNC(=O)CNC)C(=O)O1 (some centres unmarked) [Aerothricin 14] ([ξT][ξA][ξY][ξV][ξHyp][ξT][ξT][X1][X2]G[ξT][ξOrn](Sar); linker N-C via X9) | >100 | 
4 | CCCCCCCCCCCCC[C@@H]1CC(=O)NC(C(C)O)C(=O)NC(C)C(=O)NC(Cc2ccc(O)cc2)C(=O)NC(C(C)C)C(=O)N2CC(O)CC2C(=O)NC(C(C)O)C(=O)NC(C(C)O)C(=O)N2CCC(O)C2C(=O)NC(C(O)CC(N)=O)C(=O)NCC(=O)NC(C(C)O)C(=O)NC(CCCNC(=O)C2CCCN2)C(=O)O1 (some centres unmarked) [Aerothricin 15] ([ξT][ξA][ξY][ξV][ξHyp][ξT][ξT][X1][X2]G[ξT][ξOrn](ξP); linker N-C via X9) | >100 | 
5 | CCCCCCCCCCCCC[C@@H]1CC(=O)NC(C(C)O)C(=O)NC(C)C(=O)NC(Cc2ccc(O)c(NC(=O)CN)c2)C(=O)NC(C(C)C)C(=O)N2CC(O)CC2C(=O)NC(C(C)O)C(=O)NC(C(C)O)C(=O)N2CCC(O)C2C(=O)NC(C(O)CC(N)=O)C(=O)NCC(=O)NC(C(C)O)C(=O)NC(CCCNC(=O)CN)C(=O)O1 (some centres unmarked) [Aerothricin 21] ([ξT][ξA][X12][ξV][ξHyp][ξT][ξT][X1][X2]G[ξT][ξOrn](Gly); linker N-C via X9) | >100 | 
6 | CCCCCCCCCCOc1ccc(CC[C@@H]2CC(=O)NC(C(C)O)C(=O)NC(C)C(=O)NC(Cc3ccc(O)cc3)C(=O)NC(C(C)C)C(=O)N3CC(O)CC3C(=O)NC(C(C)O)C(=O)NC(C(C)O)C(=O)N3CCC(O)C3C(=O)NC(C(O)CC(N)=O)C(=O)NCC(=O)NC(C(C)O)C(=O)NC(CCCN)C(=O)N2)cc1 (some centres unmarked) [Aerothricin 36] |  | 0.6
7 | CCCCCCCCCOc1ccc2cc(CC[C@@H]3CC(=O)NC(C(C)O)C(=O)NC(C)C(=O)NC(Cc4ccc(O)cc4)C(=O)NC(C(C)C)C(=O)N4CC(O)CC4C(=O)NC(C(C)O)C(=O)NC(C(C)O)C(=O)N4CCC(O)C4C(=O)NC(C(O)CC(N)=O)C(=O)NCC(=O)NC(C(C)O)C(=O)NC(CCCN)C(=O)N3)ccc2c1 (some centres unmarked) [Aerothricin 53] ([ξT][ξA][ξY][ξV][ξHyp][ξT][ξT][X1][X2]G[ξT][ξOrn]; linker N-C via X10) | >100 | 
8 | CCCCCOc1ccc(-c2ccc(-c3ccc(C(=O)N[C@H]4C[C@@H](O)[C@@H](O)NC(=O)[C@@H]5[C@@H](O)[C@@H](C)CN5C(=O)[C@H]([C@@H](C)O)NC(=O)[C@H]([C@H](O)[C@@H](O)c5ccc(O)cc5)NC(=O)[C@@H]5C[C@@H](O)CN5C(=O)[C@H]([C@@H](C)O)NC4=O)cc3)cc2)cc1 [LY303366, reference compound] ({pTerphenylCO(4''-OnC5H11)}-[Orn(4R-OH,5R-OH)]T[Hyp][hTyr(3S-OH,4S-OH)]T[Pro(3S-OH,4S-Me)]; lactam 1-C) | 10 | 

— patent publication US6489440B1, “Cyclic compounds” (Basilea Pharmaceutica AG, priority 1998, dated 2002)
